According to PubChem BioAssay AID1919017 (Molecular Pharmacology Branch, DTP, NCI, 2023):
“And” between values parts separate entries of the source, which are not always exact repeats. Equal entries are not always repeated.

Test system: SW1271 complex spheroids with HUVEC/MSC, growth, % test/control
Assay: Anticancer human tumor SW1271 cell line growth inhibition [AhR];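 also: spheroids exposed to agents for 7 days before readout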
Conditions: for viability, T/C: stronger effect = lower value
Text: Multicellular complex tumor spheroid response to aryl hydrocarbon receptor antagonists in combination with a variety of drugs and investigational agents in selected tumor cell lines
The current study was undertaken to assess response to aryl hydrocarbon receptor antagonists in combination with standard-of-care drugs and investigational agents in solid tumor complex spheroid models. Complex spheroids include a stromal component modeled by human endothelial cells (HUVEC) and fibroblasts modeled by human mesenchymal stem cells (MSCs). The concentration ranges selected for each drug and investigational agent were based upon clinically achievable concentrations if the clinical Cmax of the agent was known.
Compounds. The drugs and investigational agents: BAY 2416964 (NSC825713), GNF351 (NSC835774), CH-223191 (NSC835775), CPI-455 (NSC825282), aza-TdCyd (NSC777586), decitabine (NSC127716), belinostat (NSC758774), entinostat (NSC756642), pevonedistat (NSC761192), tazemetostat (NSC777109), talazoparib (NSC765396), olaparib (NSC753686), selinexor (NSC780203), nedisertib (M3814, NSC802822), bortezomib (NSC756655), venetoclax (NSC766270), doxorubicin (NSC123127), elimusertib (BAY189344, NSC800525), ceralasertib (AZD6738, NSC777638), TAK-243 (NSC785004), alisertib (NSC759677), etoposide (NSC141540), topotecan (NSC609699), eribulin (NSC707389), gemcitabine (NSC613327), carboplatin (NSC241240), cisplatin (NSC119875), and SN-38 (NSC673596) were obtained from the National Cancer Institute (NCI) Developmental Therapeutics Program Chemical Repository (32). The FDA-approved anticancer drug set is available from the Developmental Therapeutics Program at https://dtp.cancer.gov/organization/dscb/obtaining/available plates.htm. […] The stock solutions were prepared in dimethyl sulfoxide (DMSO, Sigma-Aldrich, St. Louis, MO, cat. D2650), except for the platinum compounds which were prepared in saline (Quality Biological, Gaithersburg, MD, cat. 114-055-101), at 800-fold the tested concentration and stored at -70 degrees C prior to their use. All drugs and investigational agents were tested over a range starting from a high concentration at or near the clinical Cmax and decreasing in half-log increments. If the clinical Cmax for an agent had not been determined, the highest concentration tested was 10 microM (Table 1).
Cell Culture. All cells were maintained in an incubator at 37 degrees C and 5% CO2 with 95% humidity. The PDC lines were cultured according to standard operating procedures established by the NCI PDMR (https://pdmr.cancer.gov). Briefly, all PDCs were thawed and cultured in Matrigel-coated flasks prepared with a working solution of 1X Ham's F-12 nutrient mix, without supplementation (Invitrogen, Waltham, MA, cat. 11765054), 100 U/mL penicillin-streptomycin (Invitrogen, cat. 15140122), and 2.5% Matrigel (Corning Inc., Corning, NY, cat. 354248) for the first three passages. All PDCs were cultured in complete DMEM/F-12 media containing advanced DMEM/F-12 (Invitrogen, cat. 12634028), 4.9% defined fetal bovine serum, heat inactivated (HyClone Laboratories Inc., Logan, UT, cat. SH30070.03HI), 389 ng/mL hydrocortisone (Sigma-Aldrich, cat. H4001), 9.7 ng/mL human EGF recombinant protein (Invitrogen, cat. PHG0313), 23.4 microg/mL adenine (Sigma-Aldrich, cat. A2786), 97.3 U/mL penicillin-streptomycin (Invitrogen, cat. 15140122), 1.9 mM L-glutamine (Invitrogen, cat. 25030081), and 9.7 microM Y-27632 dihydrochloride (Tocris Bioscience, Bristol, United Kingdom, cat. 1254). The PDCs were cultured in complete DMEM/F12 media without 10 microM Y-27632 dihydrochloride for at least two passages prior to the screen. The established cell lines NCI-H1341 and […] were cultured in DMEM/F-12, HEPES (Invitrogen, cat. 11330032), 5% defined fetal bovine serum (HyClone Laboratories Inc., cat. SH30070.03), ITS premix universal culture supplement [insulin (5 microg/mL), transferrin (5 microg/mL), and selenious acid (5 ng/mL)] […]

Row | SMILES | viability, T/C (compound 0.0316 µM) | viability, T/C (compound 0.1 µM) | viability, T/C (compound 0.316 µM) | viability, T/C (compound 1 µM) | viability, T/C (compound 3.16 µM) | viability, T/C (compound 10 µM) | IC50 (curve of compound) | other results
1 | COc1ccc([C@@H](O)c2cc(-c3ncnc4cc(N5CCOCC5)ccc34)c(F)cc2Cl)nn1 | 80.5% and 93.2% and 107% | 96.4% and 73% and 85.2% | 76.1% and 70.2% and 81% | 62.3% and 61.5% and 59.7% | 45.4% and 57% and 39.5% | 25.2% and 27.9% and 28.6% | 2180 nM and 2740 nM and 1890 nM | 
2 | COc1cccc2c1C(=O)c1c(O)c3c(c(O)c1C2=O)CC(O)(C(=O)CO)CC3OC1CC(N)C(O)C(C)O1 (configuration not stated) | 66.6% and 50.3% and 72.6% | 69.8% and 46.8% and 56.1% | 53% and 29.6% and 40.6% | 7.45% and 5.09% and 6.04% | 4.63% and 2.92% and 2.03% | 13.6% and 3.38% and 3.85% |  | 
3 | Cc1ccccc1N=Nc1ccc(NC(=O)c2ccnn2C)c(C)c1 |  |  |  |  |  |  |  | IC50 (compound alone, run of 08/22/2022): > 10000 nM
4 | Cc1cncc(-c2nc(NCCc3c[nH]c4ccccc34)c3ncn(C(C)C)c3n2)c1 |  |  |  |  |  | 46.3% [middle of 20 runs] |  | 
5 | Cn1ncnc1C1c2n[nH]c(=O)c3cc(F)cc(c23)NC1c1ccc(F)cc1 (configuration not stated) | 89.5% and 112% and 96.6% | 88.7% and 93.8% and 83.6% |  |  |  |  | > 100 nM | viability, T/C (compound 0.000316 µM): 114% and 102% and 95.2%; viability, T/C (compound 0.001 µM): 97.2% and 109% and 100%; viability, T/C (compound 0.00316 µM): 101% and 95.9% and 94%; viability, T/C (compound 0.01 µM): 106% and 105% (2×)
6 | NS(=O)(=O)OCC1CC(n2ccc3c(NC4CCc5ccccc54)ncnc32)CC1O (configuration not stated) | 151% and 137% and 133% | 143% and 152% and 145% | 120% and 101% and 89.3% | 99.3% and 103% and 71.7% | 88.6% and 93.6% and 57.3% | 77% and 86.9% and 55.2% | > 10000 nM and 8700 nM | 
7 | Nc1ccccc1NC(=O)c1ccc(CNC(=O)OCc2cccnc2)cc1 | 107% and 114% and 87.5% | 112% and 89.2% and 77% | 72.5% and 61% and 59.9% | 62.2% and 60.4% and 45.5% | 37.6% and 38.3% and 33.3% | 10.4% and 14.2% and 7.86% | 1620 nM and 1180 nM and 765 nM | 
8 | Nc1ccn(C2OC(CO)C(O)C2(F)F)c(=O)n1 (configuration not stated) | 75.2% and 49% and 67.7% | 65.6% and 48.5% and 66.2% | 69.9% and 41.9% and 48.2% | 57.6% and 44.3% and 50% | 57.8% and 50.9% and 56.9% | 64.4% and 44.9% and 47.5% |  | 
9 | Nc1ncn(C2CC(O)C(CO)O2)c(=O)n1 (configuration not stated) | 95.4% and 81.6% and 69.9% | 86.8% and 94.5% and 63.9% | 93.2% and 73.9% and 68.4% | 101% and 80.6% and 66.2% |  |  | > 1000 nM | viability, T/C (compound 0.00316 µM): 97.1% and 72.6% and 93.8%; viability, T/C (compound 0.01 µM): 107% and 124% and 97%
10 | Nc1ncn(C2CC(O)C(CO)S2)c(=O)n1 (configuration not stated) |  |  |  |  |  |  | > 300 nM | viability, T/C (compound 0.000949 µM): 87.6% and 102% and 94.9%; viability, T/C (compound 0.003 µM): 97.8% and 95.9% and 114%; viability, T/C (compound 0.00949 µM): 85.7% and 82.9% and 113%; viability, T/C (compound 0.03 µM): 94.8% and 90.3% and 103%; viability, T/C (compound 0.0949 µM): 89.2% and 85.8% and 94.6%; viability, T/C (compound 0.3 µM): 78.8% and 82.7% and 78.6%
11 | O=C(C=Cc1cccc(S(=O)(=O)Nc2ccccc2)c1)NO | 103% and 83.5% and 85.7% | 93.6% and 105% and 72.1% | 84.1% and 62.7% and 54.9% | 62.3% and 55.8% and 46.2% | 31.1% and 22.6% and 23.3% | 13.2% and 16.8% and 9.23% | 1550 nM and 963 nM and 556 nM | 
12 | O=C(C=Cn1cnc(-c2cc(C(F)(F)F)cc(C(F)(F)F)c2)n1)NNc1cnccn1 |  |  |  |  |  |  | 1660 nM and 1430 nM and 701 nM | viability, T/C (compound 0.00949 µM): 95.2% and 89.5% and 105%; viability, T/C (compound 0.03 µM): 92.7% and 78.8% and 61.8%; viability, T/C (compound 0.0949 µM): 79.7% and 88.9% and 77.8%; viability, T/C (compound 0.3 µM): 78.9% and 65.1% and 64.9%; viability, T/C (compound 0.949 µM): 55% and 57% and 44.6%; viability, T/C (compound 3 µM): 42.1% and 41.2% and 35.7%
13 | O=C(c1cc(Cc2n[nH]c(=O)c3ccccc23)ccc1F)N1CCN(C(=O)C2CC2)CC1 | 93% and 99.8% (2×) | 101% and 109% and 92.5% | 90.8% and 96.5% and 82.1% | 84.3% and 88.2% and 89.1% | 80.5% and 98.7% and 74.1% | 66% and 77.4% and 76.5% | > 10000 nM | 
